Measured values: US8703106B2, “Chlorine dioxide treatment for biological tissue” (priority 2009, dated 2014)

Tests used:
[1] = test system: mixed PA/MRSA biofilm; assay: Biofilm kill on ceramic disks, clean system (Example 1); assay type: cell-based, Pseudomonas aeruginosa and Staphylococcus aureus; conditions: for Log Reduction in Organism Count: MRSA + PA, total bacteria
Description: (§1) A series of experiments were conducted to estimate the dosage of chlorine dioxide needed to kill bacterial biofilms consisting of Pseudomonas acruginosa (PA), methicillin resistant Staphylococcus aureus (MRSA), or a combination of both.
(§2) Bacterial biofilms were grown for between 7 and 10 days on non-porous ceramic disks in a spinning disk biofilm reactor. The reactors were inoculated with PA, MRSA, or a mixture of MRSA and PA bacteria to produce PA, MRSA, or mixed PA/MRSA biofilms respectively.
(§3) Chlorine dioxide solutions were produced at different nominal concentrations using ASEPTROL S-Tab10 tablets, and the exact concentrations were then measured using a Hach Model 2400 UV/Vis spectrophotometer in accordance with the manufacturer's instructions. Pairs of biofilm-containing disks were immersed for different times in solutions of different chlorine dioxide concentrations, neutralized with dilute sodium thiosul fate solution, and then plated to determine the number of surviving bacteria on each disk. Two untreated disks were also exposed to neutralizing solution and plated to determine the starting bacterial counts. In all tests, the baseline bacterial counts were in the range of 10^7 to 10^7.5 colony-forming units per disk (cfu/disk). A one log reduction refers to reducing the cfu/disk by one order of magnitude, e.g., a reduction from 10^7.1 cfu/disk to 10^6.1 cfu/disk. Accordingly, a substantially complete kill is achieved in the example if the log reduction of bacteria is about 7 to 7.5.
(§4) The results are presented in terms of log reduction of the different bacterial organisms. In the case of mixed PA/MRSA biofilms, results are given as total bacteria.

[2] = test system: bacteria in wounds; assay: Pig wound model, chlorine dioxide with sonication (Example 5); assay type: in vivo; conditions: 400 ppm solution, 8 x 15 min, plus three 4 min sonications at about 20 kHz, 40% duty cycle
Description: An experiment was performed to assess the efficacy of a combination therapy of chlorine dioxide administration and sonication on bacterial levels in wounds. The animal model was a pig. Sixteen wounds were introduced and inoculated with bacteria as described in Example 6. On Day 2, treatment was administered. There were control wounds that were not treated with either chlorine dioxide or ultrasound. Test wounds were treated with ultrasonic energy for 4 minutes, using a frequency of about 20 kHz, a 40% duty cycle and a range of power intensities up to 3.5 W/cm^2; each test wound received a total of three sonication treatments. Test wounds were treated with a 400 ppm chlorine dioxide solution applied to each wound in 8 separate, contiguous applications of 15 minutes duration each (total of 120 minutes of exposure to 400 ppm chlorine dioxide) and each application used a fresh specimen of the solution. Each treated wound received a total of three×4 minute sonication over the course of the 2 hours of chlorine dioxide treatment.
Wounds were biopsied after treatment as described in Example 4.

[3] = test system: Pseudomonas aeruginosa (PA) biofilm; assay: Biofilm kill on ceramic disks, clean system (Example 1); assay type: cell-based; conditions: for Log Reduction in Organism Count: PA
Description: as §1, §2, §3, §4

[4] = test system: methicillin resistant Staphylococcus aureus (MRSA) biofilm; assay: as above; assay type: cell-based; conditions: for Log Reduction in Organism Count: MRSA
Description: as §1, §2, §3, §4

[O][Cl+][O-] [ClO2, chlorine dioxide]
Log Reduction in Organism Count ([1]; Sample 12, 10.0 min, 52 ppm ClO2, 520 ppm-min): 5.5 log
Log Reduction in Organism Count ([1]; Sample 13, 30.0 min, 52 ppm ClO2, 1560 ppm-min): 7.4 log
Log Reduction in Organism Count ([1]; Sample 14, 1.0 min, 181 ppm ClO2, 181 ppm-min): 5.1 log
Log Reduction in Organism Count ([1]; Sample 15, 5.0 min, 160 ppm ClO2, 800 ppm-min): 7.4 log
Log Reduction in Organism Count ([1]; Sample 16, 30.0 min, 160 ppm ClO2, 4800 ppm-min): 7.4 log
dosage achieving a kill of about 5 orders of magnitude (5 log) ([1]; mixed PA/MRSA biofilm, clean system (Sample 12)): greater than 200 ppm-min
bacterial counts in test wounds ([2]; as a function of power intensity up to 3.5 W/cm^2): decrease significantly (multiple log reductions)
bacterial kill in test wounds ([2]; at 3.5 W/cm^2): substantially complete log kill
dosage achieving a kill of about 5 orders of magnitude (5 log) ([3]; PA biofilm, clean system (Sample 7)): greater than 200 ppm-min
Log Reduction in Organism Count ([3]; Sample 6, 0.5 min, 200 ppm ClO2, 100 ppm-min): 5.9 log
Log Reduction in Organism Count ([3]; Sample 7, 5.0 min, 43 ppm ClO2, […]-min): 5.7 log
Log Reduction in Organism Count ([3]; Sample 8, 5.0 min, 187 ppm ClO2, 935 ppm-min): 7.5 log
Log Reduction in Organism Count ([3]; Sample 9, 10.0 min, 37 ppm ClO2, 370 ppm-min): 7.5 log
Log Reduction in Organism Count ([3]; Sample 10, 50.0 min, 35 ppm ClO2, 1750 ppm-min): 7.5 log
Log Reduction in Organism Count ([3]; Sample 11, 50.0 min, 166 ppm ClO2, 8300 ppm-min): 7.5 log
dosage achieving a kill of about 5 orders of magnitude (5 log) ([4]; MRSA biofilm, clean system (Sample 1)): greater than 200 ppm-min
Log Reduction in Organism Count ([4]; Sample 1, 1.0 min, 208 ppm ClO2, 208 ppm-min): 5.5 log
Log Reduction in Organism Count ([4]; Sample 2, 5.0 min, 204 ppm ClO2, 1020 ppm-min): 7.1 log
Log Reduction in Organism Count ([4]; Sample 3 (second line), 30.0 min, 40 ppm ClO2, 1200 ppm-min): 5.1 log
Log Reduction in Organism Count ([4]; Sample 3, 10.0 min, 45 ppm ClO2, 450 ppm-min): 5.5 log
Log Reduction in Organism Count ([4]; Sample 4, 30.0 min, 175 ppm ClO2, 5250 ppm-min): 7.1 log
